Results published in patent publication US20070128217A1 (priority 2003, published 2007).

Assays:
[1] = test system: antibodies in sera from SARS patients (sera 1a, 1b, 2, 6, 37, 62, London, SARS-yellow, SARS-green); assay type: binding, human; design: Binding of serum 6 to linear peptides of protein X1 of SARS-CoV Urbani / Binding of serum 37 to linear peptides of protein X1 of SARS-CoV Urbani / Binding of serum 6 to looped/cyclic peptide (PEPSCAN-ELISA) / Binding of serum 37 to looped/cyclic peptide (PEPSCAN-ELISA) / Binding of serum 37 to looped/cyclic peptides of protein X1 of SARS-CoV Urbani / Binding of serum 6 to linear peptides of protein X2 / Binding of serum 37 to linear peptides of protein X2 / Binding of serum 37 to looped/cyclic peptides of protein X2 of SARS-CoV Urbani / Binding of serum 6 to linear peptides of protein M of SARS-CoV Urbani / Binding of serum 37 to linear peptides of protein M of SARS-CoV Urbani / Binding of serum 6 to looped/cyclic peptides of protein M of SARS-CoV Urbani / Binding of serum 37 to looped/cyclic peptides of protein M of SARS-CoV Urbani / Binding of serum 6 to linear peptides of protein X3 of SARS-CoV Urbani / Binding of serum 37 to linear peptides of protein X3 of SARS-CoV Urbani / Binding of serum 37 to looped/cyclic peptides of protein X3 of SARS-CoV Urbani / Binding of serum 6 to linear peptides of protein X4 of SARS-CoV Urbani / Binding of serum 37 to linear peptides of protein X4 of SARS-CoV Urbani / Binding of serum 37 to looped/cyclic peptides of protein X4 of SARS-CoV Urbani / Binding of serum 6 to linear peptides of protein X5 of SARS-CoV Urbani / Binding of serum 37 to linear peptides of protein X5 of SARS-CoV Urbani / Binding of serum 37 to looped/cyclic peptides of protein X5 of SARS-CoV Urbani / Binding of serum 6 to linear peptides of protein N of SARS-CoV Urbani / Binding of serum 37 to linear peptides of protein N of SARS-CoV Urbani / Binding of serum 6 to linear peptide (PEPSCAN-ELISA) / Binding of serum 1a to looped/cyclic peptides of protein N of SARS-CoV Urbani / Binding of serum 1b to looped/cyclic peptides of protein N of SARS-CoV Urbani / Binding of serum 2 to looped/cyclic peptides of protein N of SARS-CoV Urbani / Binding of serum 6 to looped/cyclic peptides of protein N of SARS-CoV Urbani / Binding of serum 37 to looped/cyclic peptides of protein N of SARS-CoV Urbani / Binding of serum 62 to looped/cyclic peptides of protein N of SARS-CoV Urbani / Binding of serum London to looped/cyclic peptides of protein N of SARS-CoV Urbani / Binding of serum SARS-green to looped/cyclic peptides of protein N of SARS-CoV Urbani: unit not given here
[2] = test system: control sera (pooled serum of ten healthy LUMC hospital workers; commercial negative donor pooled serum from the Dutch bloodbank); assay type: binding, human; design: Binding of Control serum LUMC to linear peptides / Binding of Control serum Blood-bank to linear peptides / Binding of Control serum LUMC to looped peptides / Binding of Control Serum Blood-Bank to Looped peptides / Binding of Control serum LUMC to linear peptides of the protein M of SARS-CoV Urbani / Binding of Control serum Blood-bank to linear peptides of the protein M of SARS-CoV Urbani / Binding of Control serum LUMC to looped peptides of the protein M of SARS-CoV Urbani / Binding of Control Serum Blood-Bank to Looped peptides of the protein M of SARS-CoV Urbani: unit not given here
[3] = test system: rabbit serum obtained by immunizing a rabbit with the SARS-CoV strain Frankfurt 1; assay type: binding; design: Binding of a rabbit serum to linear peptides / Binding of a rabbit serum to looped peptides / Rabbit serum linear peptides / Rabbit serum looped peptides / Binding of a rabbit serum to linear peptides of protein N of SARS-CoV Urbani (Rabbit serum linear peptides) / Binding of a rabbit serum to looped/cyclic peptides of protein N of SARS-CoV Urbani (Rabbit serum looped peptides): unit not given here
[4] = test system: recombinant human anti-SARS-CoV antibody 03-018; assay type: binding; design: Binding of antibody 03-018 to linear peptides of the N protein of SARS-CoV Urbani / Binding of antibody 03-018 to looped/cyclic peptides of the N protein of SARS-CoV Urbani: unit not given here

NPNNNAATVLQLPQG
Binding of serum 1a to linear peptides of protein N of SARS-CoV Urbani [1]: 0.4 | Binding of serum 1a to looped/cyclic peptides of protein N of SARS-CoV Urbani [1]: 0.4 | Binding of serum 1b to linear peptides of protein N of SARS-CoV Urbani [1]: 0.2 | Binding of serum 1b to looped/cyclic peptides of protein N of SARS-CoV Urbani [1]: 0.4 | Binding of serum 2 to linear peptides of protein N of SARS-CoV Urbani [1]: 0.4 | Binding of serum 2 to looped/cyclic peptides of protein N of SARS-CoV Urbani [1]: 0.5 | Binding of serum 6 to linear peptides of protein N of SARS-CoV Urbani [1]: 0.3 | Binding of serum 6 to looped/cyclic peptides of protein N of SARS-CoV Urbani [1]: 0.3 | Binding of serum 37 to linear peptides of protein N of SARS-CoV Urbani [1]: 0.8 | Binding of serum 37 to looped/cyclic peptides of protein N of SARS-CoV Urbani [1]: 0.9 | Binding of serum 62 to linear peptides of protein N of SARS-CoV Urbani [1]: 0.9 | Binding of serum 62 to looped/cyclic peptides of protein N of SARS-CoV Urbani [1]: 0.9 | Binding of serum London to linear peptides of protein N of SARS-CoV Urbani [1]: 0.8 | Binding of serum London to looped/cyclic peptides of protein N of SARS-CoV Urbani [1]: 0.5 | Binding of serum SARS-green to linear peptides of protein N of SARS-CoV Urbani [1]: 0.6 | Binding of serum SARS-green to looped/cyclic peptides of protein N of SARS-CoV Urbani [1]: 0.7 | Binding of serum SARS-yellow to linear peptides of protein N of SARS-CoV Urbani [1]: 0.8 | Binding of serum SARS-yellow to looped/cyclic peptides of protein N of SARS-CoV Urbani [1]: 0.5 | Binding of Control Serum Blood-Bank to Looped peptides [2]: 0.8 | Binding of Control serum Blood-bank to linear peptides [2]: 0.9 | Binding of Control serum LUMC to linear peptides [2]: 0.9 | Binding of Control serum LUMC to looped peptides [2]: 0.9 | Binding of a rabbit serum to linear peptides of protein N of SARS-CoV Urbani (Rabbit serum linear peptides) [3]: 0.1 | Binding of a rabbit serum to looped/cyclic peptides of protein N of SARS-CoV Urbani (Rabbit serum looped peptides) [3]: 0.3 | Binding of antibody 03-018 to linear peptides of the N protein of SARS-CoV Urbani [4]: 0.1 | Binding of antibody 03-018 to looped/cyclic peptides of the N protein of SARS-CoV Urbani [4]: 0.3

NSRNSTPGSSRGNSP
Binding of serum 1a to linear peptide (PEPSCAN-ELISA) [1]: 0.6 | Binding of serum 1a to looped/cyclic peptides of protein N of SARS-CoV Urbani [1]: 0.6 | Binding of serum 1b to linear peptide (PEPSCAN-ELISA) [1]: 0.4 | Binding of serum 1b to looped/cyclic peptides of protein N of SARS-CoV Urbani [1]: 0.5 | Binding of serum 2 to linear peptide (PEPSCAN-ELISA) [1]: 0.3 | Binding of serum 2 to looped/cyclic peptides of protein N of SARS-CoV Urbani [1]: 0.5 | Binding of serum 6 to linear peptide (PEPSCAN-ELISA) [1]: 0.4 | Binding of serum 6 to looped/cyclic peptides of protein N of SARS-CoV Urbani [1]: 0.4 | Binding of serum 37 to linear peptide (PEPSCAN-ELISA) [1]: 0.9 | Binding of serum 37 to looped/cyclic peptides of protein N of SARS-CoV Urbani [1]: 0.6 | Binding of serum 62 to linear peptide (PEPSCAN-ELISA) [1]: 0.9 | Binding of serum 62 to looped/cyclic peptides of protein N of SARS-CoV Urbani [1]: 0.5 | Binding of serum London to linear peptide (PEPSCAN-ELISA) [1]: 1.4 | Binding of serum London to looped/cyclic peptides of protein N of SARS-CoV Urbani [1]: 0.4 | Binding of serum SARS-green to linear peptide (PEPSCAN-ELISA) [1]: 0.4 | Binding of serum SARS-green to looped/cyclic peptides of protein N of SARS-CoV Urbani [1]: 0.3 | Binding of serum SARS-yellow to linear peptide (PEPSCAN-ELISA) [1]: 1.0 | Binding of serum SARS-yellow to looped/cyclic peptides of protein N of SARS-CoV Urbani [1]: 0.3 | Binding of Control Serum Blood-Bank to Looped peptides [2]: 0.7 | Binding of Control serum Blood-bank to linear peptides [2]: 0.9 | Binding of Control serum LUMC to linear peptides [2]: 0.7 | Binding of Control serum LUMC to looped peptides [2]: 0.7 | Binding of a rabbit serum to linear peptides of protein N of SARS-CoV Urbani (Rabbit serum linear peptides) [3]: 0.2 | Binding of a rabbit serum to looped/cyclic peptides of protein N of SARS-CoV Urbani (Rabbit serum looped peptides) [3]: 0.5 | Binding of antibody 03-018 to linear peptides of the N protein of SARS-CoV Urbani [4]: 0.1 | Binding of antibody 03-018 to looped/cyclic peptides of the N protein of SARS-CoV Urbani [4]: 0.2
